{"source": "patent US10441597B2", "about": "“Ciclesonide for the treatment of airway disease in horses” (Boehringer Ingelheim Vetmedica GmbH, priority 2012, dated 2019)", "key": {"[1]": {"tested_on": "segmented neutrophils and lymphocytes", "test": "Moldy hay challenge study in RAO horses: segmented neutrophil and lymphocyte counts", "type": "in vivo, horse", "conditions": "for Lymphocytes count after administration / Segmented neutrophil count after administration: dexamethasone 0.066 mg/kg per os once daily", "protocol": "(§1) The commercially available […]® is used in the study.\nThe segmented neutrophil counts and the lymphocyte counts are determined in the studies above: ciclesonide treatment versus dexamethasone treatment."}, "[2]": {"tested_on": "RAO horses", "test": "Moldy hay challenge study in RAO horses: lung function variables (transpulmonary pressure, lung resistance, lung elastance)", "type": "in vivo, horse", "conditions": "dexamethasone 0.066 mg/kg per os once daily, after 14 days", "source_text": "as §1"}, "[3]": {"tested_on": "RAO horses", "test": "Moldy hay challenge study in RAO horses: clinical score (breathing effort score, weighted clinical score)", "type": "in vivo, horse", "conditions": "dexamethasone 0.066 mg/kg per os once daily", "source_text": "as §1"}, "[4]": {"conditions": "when taken orally; cited from earlier work"}, "[5]": {"tested_on": "cortisol levels", "conditions": "horses; after aerosol administration; cited from earlier work"}, "[6]": {"tested_on": "cortisol levels", "conditions": "humans; after aerosol administration/inhalation; cited from earlier work"}}, "note": "Read-outs that look alike come from different tables or passages of the source."}
{"smiles": "C[C@@H]1C[C@H]2[C@@H]3CCC4=CC(=O)C=C[C@]4(C)[C@@]3(F)[C@@H](O)C[C@]2(C)[C@@]1(O)C(=O)CO", "note": "[dexamethasone]", "values": [{"measurement": "Lymphocytes count after administration", "setting": "[1]; 1st ciclesonide study", "result": "decreased"}, {"measurement": "Segmented neutrophil count after administration", "setting": "[1]; 1st ciclesonide study", "result": "increased"}, {"measurement": "Lymphocytes count after administration", "setting": "[1]; 2nd ciclesonide study", "result": "decreased"}, {"measurement": "Segmented neutrophil count after administration", "setting": "[1]; 2nd ciclesonide study", "result": "increased"}, {"measurement": "Neutrophilia and lymphopenia", "setting": "[1]; after treatment with dexamethasone, 1st and 2nd ciclesonide studies (Table 2)", "result": "commonly observed"}, {"measurement": "All lung function variables compared to pretreatment values", "setting": "[2]; 1st ciclesonide study, p<0.0001", "result": "significantly reduced"}, {"measurement": "All lung function variables compared to pretreatment values", "setting": "[2]; 2nd ciclesonide study, p=0.0009 to p<0.0001", "result": "significantly reduced"}, {"measurement": "All lung function variables compared to pretreatment values", "setting": "[2]; Budesonide study, p≤0.0001", "result": "significantly reduced"}, {"measurement": "Breathing effort score", "setting": "[3]; 1st ciclesonide study, any measured time point", "result": "no significant changes"}, {"measurement": "Weighted clinical score compared to pretreatment values", "setting": "[3]; 2nd ciclesonide study, after 14 days, p=0.0001 to p<0.0001", "result": "significantly reduced"}, {"measurement": "Clinical score compared to pretreatment values", "setting": "[3]; Budesonide study, after 7 and 14 days, p=0.002 to p<0.0001", "result": "significantly reduced"}, {"measurement": "Potency relative to prednisone", "setting": "[4]", "result": 7, "unit": "times"}, {"measurement": "Potency relative to the naturally occurring hormone cortisol", "setting": "[4]", "result": 27, "unit": "times"}]}
{"smiles": "C[C@@H]1C[C@H]2[C@@H]3C[C@H](F)C4=CC(=O)C=C[C@]4(C)[C@@]3(F)[C@@H](O)C[C@]2(C)[C@@]1(O)C(=O)SCF", "note": "[fluticasone]", "values": [{"measurement": "Measured cortisol levels", "setting": "[5]", "result": "significant suppression"}, {"measurement": "Measured cortisol levels", "setting": "[6]", "result": "significant suppression"}]}
